Eight compounds from patent publication US5162571A, “Phenol derivatives, their production and use” (Takeda Chemical Industries, Ltd., priority 1987, dated 1992) can be followed below.

Usually inhibition in vivo stands for how much of the control response was suppressed.

The subject of test [1] is chorioallantoic membrane. Kind of test: Angiogenesis inhibitory activity, shell-less chorioallantoic membrane (CAM) assay. The test is classed as in vivo, chick. To be noted: 6 disks tested. The method, then:
Angiogenesis inhibitory activity
Method: Shell-less chorioallantoic membrane assay.
The shell-less chorioallantoic membrane (CAM) assay was carried out by the method of Taylor and Folkman [S. Taylor and J. Folkman; Nature, 297, 307 (1982)] with a slight modification. Thus, 3-day chick embryos were removed from their shells and cultured in plastic cups on hammocks of plastic wrap. Samples along with ECGS (endothelial cell growth supplements, Collaborative Research Inc.) were placed on plastic disks (polypropylene, 6 mm in diameter). After the solution had dried, the disks were placed on the CAM of 10-day embryos. Three days later, inhibition of the neovascular formation by fumagillin was observed under a stereoscope (×20, SMZ-10, Nikon), and compared to the control disk containing ECGS as a stimulant of angiogenesis without samples.

Test [2] concerns lipid peroxides production in rat brain homogenates. Kind of test: Inhibitory action on lipid peroxides production in rat brain homogenates. The test is classed as biochemical. To be noted: 10^-5 M. The method, then:
Inhibitory action on lipid peroxides production in rat brain homogenates
Method: The male SD rat brain tissue was used as 5% homogenate in phosphate-buffered solution. After incubation of the homogenate for 1 hour at 37° C., the amount of lipid peroxides produced was determined by the thiobarbituric acid method according to the description of Ohkawa et al. (Analytical Biochemistry, 95: 551, 1979)
Test compounds were used as a solution of dimethylsulfoxide. The inhibitory action on lipid peroxide production was expressed as a % inhibition as compared with the amount of production in the vehicle group.

Test [3] deals with T1, Thromboxane A2 (TXA2) receptor (Oryctolagus cuniculus, UniProt Q6WQI8).
T1 construct: contraction by TXA2 mimics U-44069 or U-46619
T1 sequence (Q6WQI8 1-233): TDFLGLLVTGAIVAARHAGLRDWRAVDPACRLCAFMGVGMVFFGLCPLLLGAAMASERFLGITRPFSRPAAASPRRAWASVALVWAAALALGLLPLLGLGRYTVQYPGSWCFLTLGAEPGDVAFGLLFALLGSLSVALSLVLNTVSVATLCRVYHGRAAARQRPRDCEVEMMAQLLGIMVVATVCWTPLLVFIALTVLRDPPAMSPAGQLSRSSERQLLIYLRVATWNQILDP
Kind of test: Thromboxane A2 (TXA2) receptor antagonism: inhibitory effect on contraction of rabbit aorta by TXA2-mimics. To be noted: U-44069 (10^-7 M)-induced contraction; for inhibition at 10 µM: 10^-5 M; for inhibition at 1 µM: 10^-6 M. It is filed as cell-based. The method, then: Thromboxane A2 (TXA2) receptor antagonism
Inhibitory effect on contraction of rabbit aorta by thromboxan A2 (TXA2)-mimics
Method: A spiral strip of the rabbit aorta (2-3 mm wide, about 3 cm long) was suspended in Krebs-Henseleit solution under the load of 2 g. The Krebs-Henseleit solution was saturated with a mixed gas of 95%O2 -5%CO2 and warmed at 37° C. Inhibition of the contraction of the vascular strip caused by a TXA2 mimic substance U-44069^1) (10^-7 M) or U-46619^2) (3×10 ^-8 M), by pretreatment with Compound No. 13 30 minutes before was studied.
1) U-44069: (5Z, 9α, 11α, 13E, 15S)-15-hydroxy-9,11-(epoxymethano)-prosta-5,13-dienoic acid (manufacturedby The Upjohn Company in U.S.A.)
2) U-46619: (5Z, 9α, 11α, […], 15S)-15-hydroxy-11,9-(epoxymethano)-prosta-5,13-dienoic acid (manufacturedby Cayman Chemical Company)
In Table 5, "*" represents addition of U-46619.

The target of test [4] is T2, specific [^3 H] U-46619 binding to guinea pig platelet membrane (Cavia porcellus, UniProt A0A286Y4I8).
T2 construct: Platelet membranes were prepared according to the following procedure; from tissue; host or cells: guinea pig platelet membranes
T2 sequence (A0A286Y4I8 1-347): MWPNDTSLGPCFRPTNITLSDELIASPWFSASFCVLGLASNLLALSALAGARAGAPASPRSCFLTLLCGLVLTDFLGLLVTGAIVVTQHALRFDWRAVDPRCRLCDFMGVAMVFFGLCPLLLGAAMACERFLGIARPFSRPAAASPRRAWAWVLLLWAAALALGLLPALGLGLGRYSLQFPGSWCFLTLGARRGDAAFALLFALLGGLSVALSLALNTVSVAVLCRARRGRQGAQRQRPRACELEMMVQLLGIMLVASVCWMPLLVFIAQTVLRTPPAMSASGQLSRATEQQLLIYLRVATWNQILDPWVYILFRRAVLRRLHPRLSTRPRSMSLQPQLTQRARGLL
Kind of test: Inhibition of specific [^3 H] U-46619 binding to guinea pig platelet membrane. To be noted: [^3 H] U-46619, 25° C., 30 min; read-out: IC50 (Concentration for 50% inhibition). The method, then: Inhibition of specific [^3 H] U-46619 binding to guinea pig platelet membrane
Method: Blood from normal guinea pig was collected into 0.315% citrate solution containing aspirin (final concentration 1 mM) and was centrifuged at 3000 r.p.m. for […]. The PRP (platelet rich plasma) was centrifuged at 4800 r.p.m for 10 min. at 4° C. Platelet membranes were prepared according to the following procedure: In order to remove the residual plasma protein, the platelet pellet was washed once with 30 ml of buffer containing 25 mM Tris-HCl/5 mM MgCl2 (pH 7.4) and recentrifuged to pellet the platelets. The platelets were then resuspended in 20 ml of the same buffer, and the cells were disrupted by sonication. The sonication was performed on ice using a Kontes Sonicator (Vineland, N.J.). The platelets were sonicated for a total of 90 sec. with a 15 sec. burst followed by a 15 sec. intermission. The sonicated mixture was centrifuged at 100,000×g for 1 hour and the membrane fraction was suspended in the same buffer. The protein concentration was adjusted to 1 mg/ml.
The binding assay was performed at 25° C. for 30 min. One ml of the resuspended membrane fraction was incubated with […] of [^3 H] U-46619. The incubation mixture was filtered through a glass fiber membrane (GF/C, whatman) to separate the membrane bound from free [^3 H] U-46619. The membranes were quickly washed twice with 5 ml of cold buffer, mixed with 4 ml of ACS scintillation fluid and counted for [^3 H] U-46619.

Test [5] concerns U-46619 (TXA2 mimic)-induced broncho-constriction. Kind of test: Inhibitory effect on U-46619 (TXA2 mimic)-induced broncho-constriction in guinea pig. To be noted: Cavia porcellus, ** p < 0.01; for inhibition in vivo at 5 mg/kg: po, 5 mg/kg p.o., 1 hour before U-46619. The test is classed as in vivo. The method, then:
Inhibitory effect on U-46619 (TXA2 mimic)-induced broncho-constrictionin guinea pig
Method: Eight male Hartley guinea pigs were used per one group. The guinea pig anesthetized with urethane (1.5 g/kg, i.p.) was fixed in a dorsal position, subjected to tracheotomy and connected to a respirator through a cannula. A side branch of the tracheal cannula was connected to a respirator (Harvard apparatus rodent respirator Type 680) at the rate of 70 strokes/min. and a constant volume of 3 to 5 ml.
Inflation pressure was kept constant at 10 cm H2 O.
After treatment with gallamine triethiodide (1 mg/kg, i.v.), U-46619 (10 μg/Kg) dissolved in a physiological saline solution was given through a carotid cannula and the airway resistance was measured by the overflow technique of Konzett-Rossler method (Konzett, H. and Rossler, R., Naunyn-Schmiedegerg's Arch, Exp. Path. Pharmak., 195, 71-74 (1940). A test compound was suspended in 5% gum arabic solution and was administered orally 1 hour before the treatment with U-46619.
Alternatively, a test compound was dissolved in aqueous 50% dimethylsulfoxide solution and administered interveneously in the dosage of 0.1 ml/100 g body weight 9 minutes before the treatment of U-46619.

Test [6] has as its system vasoconstriction by PGD2 (rabbit aorta). Kind of test: Inhibitory effect of vasoconstriction by PGD2. It is filed as cell-based. To be noted: Oryctolagus cuniculus; 10^-7 M; PGD2 (3×10^-6 M); n = 2; read-out: Inhibitory Rate (%). The method, then: Inhibitory effect of vasoconstriction by PGD2
Method: A spiral strip of the rabbit aorta (2-3 mm wide, about 3 cm long) was suspended in Krebs-Henseleit solution under the load of 2 g. The Krebs-Henseleit solution was saturated with a mixed gas of 95% O2 -5% CO2 and warmed at 37° C. Inhibition of the contraction of the vascular strip caused by addition of PGD2 (3×10^-6 M) by pretreatment with Compound No. 13 30 minutes before was studied.

The target of test [7] is T3, 5-Lipoxygenase (Rattus norvegicus, UniProt P12527).
T3 construct: RBL-1 cells (rat basophilic leukemia cells); endogenous in cells; host or cells: RBL-1 (rat basophilic leukemia cells)
T3 sequence (P12527 1-673): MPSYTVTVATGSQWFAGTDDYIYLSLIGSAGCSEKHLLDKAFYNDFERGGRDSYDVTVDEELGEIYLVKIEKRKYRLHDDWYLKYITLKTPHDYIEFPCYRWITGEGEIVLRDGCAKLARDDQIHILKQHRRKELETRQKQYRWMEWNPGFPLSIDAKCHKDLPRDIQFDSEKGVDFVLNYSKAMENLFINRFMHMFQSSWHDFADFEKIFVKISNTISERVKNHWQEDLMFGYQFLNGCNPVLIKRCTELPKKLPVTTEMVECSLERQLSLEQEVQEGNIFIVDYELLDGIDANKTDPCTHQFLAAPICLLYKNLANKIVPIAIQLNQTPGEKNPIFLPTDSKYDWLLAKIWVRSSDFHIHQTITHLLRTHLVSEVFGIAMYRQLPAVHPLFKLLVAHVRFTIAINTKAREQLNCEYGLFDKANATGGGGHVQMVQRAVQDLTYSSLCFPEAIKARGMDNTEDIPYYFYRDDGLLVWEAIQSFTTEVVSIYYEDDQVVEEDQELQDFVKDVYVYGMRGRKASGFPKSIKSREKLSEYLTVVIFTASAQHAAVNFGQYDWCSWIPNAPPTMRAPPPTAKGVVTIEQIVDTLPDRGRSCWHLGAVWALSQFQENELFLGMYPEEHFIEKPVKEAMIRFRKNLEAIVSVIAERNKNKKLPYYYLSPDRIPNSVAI
Kind of test: 5-Lipoxygenase inhibitory activity (5-HETE production in RBL-1 cells). To be noted: read-out: Inhibitory effect on 5-HETE production (%); for inhibition at 10 µM: 10^-5 M; for inhibition at 1 µM: 10^-6 M; for inhibition at 0.1 µM: 10^-7 M. It is filed as cell-based. The method, then: 5-Lipoxygenase inhibitory activity
Method: 10^7 RBL-1 cells (rat basophilic leukemia cells) were suspended in 0.5 ml of MCM (mast cell medium), and test solutions (made up of 0.5 ml of MCM, 50 μg of arachidonic acid, 10 μg of A-23187 (calcium ionophore) and 1 μM, 0.01 μM and 0.001 μM as the final concentration of the phenol compound, respectively) prepared previously were added respectively to the suspension, followed by reaction at 37° C. for 20 minutes. After the conclusion of the reaction, 4 ml of ethanol and 1,4-dimethoxy-2-methyl-3-(3-methoxypropyl)naphthalene as the internal reference drug were added to the reaction solution, and the mixture was shaken thoroughly and allowed to stand at room temperature for 10 minutes. Then, it was centrifuged (2000 r.p.m.) for 10 minutes, and the supernatant fluid was separated and concentrated to dryness under reduced pressure. 0.5 ml of 60% aqueous methanol was added to the concentrate, and 100 μl of the resulting solution was taken and subjected to high-performance liquid chromatography to determine the amount of 5-HETE (5-hydroxy-eicosatetraenoic acid). Determination of 5-HETE was made through measurement of an absorption at 237 nm with a UV absorption monitor.
The 5-HETE production inhibitory effect (IE) was expressed by [formula] wherein a is a peak height or peak area corrected by the peak for the internal reference when the phenol compound is not contained; b is a peak height or peak area corrected by the peak for the internal reference when the phenol compound is contained.

On to `Cc1cc(C)c(O)c(C(CCCCCC(=O)O)c2ccc(F)cc2)c1C` (centres unmarked) [Compound 1, 7-(4-fluorophenyl)-7-(2-hydroxy-3,5,6-trimethylphenyl)heptanoic acid], for which the entries for the “Number of disks showing angiogenesis inhibition” value in test [1] (4 μg) and in test [1] (20 μg) were 3 and 6, respectively. In test [2], the “Inhibition (%)” value amounted to 92.0%. The inhibition at 10 µM in test [3] stood at 100%. The compound further displayed an inhibition at 1 µM in test [3] of 56%. Besides, the IC50 in test [4] is 240 nM. In test [5], this compound returned an inhibition in vivo at 5 mg/kg of 55%.
For the compound `Cc1cc(C)c(O)c(C(CCCCCCO)c2ccccc2)c1C` (centres unmarked) [Compound 5, 7-(2-hydroxy-3,5,6-trimethylphenyl)-7-phenylheptanol], the “Inhibition (%)” value in test [2] is listed as 100%.
With `CCCCCCC(c1ccc(F)cc1)c1c(C)c(C)cc(C)c1O` (centres unmarked) [Compound 6], the “Inhibition (%)” value in test [2] came out at 100%.
As to `Cc1c(C)c(C)c(C(CCCCCC(=O)O)c2ccc(F)cc2)c(O)c1C` (centres unmarked) [Compound 9], in test [2], the “Inhibition (%)” value is recorded as 100%. Further, in test [3], the inhibition at 10 µM came to 100% and the inhibition at 1 µM stood at 27%. Moreover, in test [4], the IC50 turned out to be 130 nM. Also, at 0.31 mg/kg the inhibition in vivo in test [5] (iv, 0.31 mg/kg i.v., 9 minutes before U-46619) was 65%.
In the case of `Cc1c(C)c(Cc2ccc(F)cc2)c(C)c(C(CCCCCC(=O)O)c2ccc(F)cc2)c1O` (centres unmarked) [Compound 20], the “Inhibition (%)” value in test [2] turned out to be 74.5%.
Consider `Cc1c(C)c(C=O)c(C)c(C(CCCCCC(=O)O)c2ccc(F)cc2)c1O` (centres unmarked) [Compound 27, 7-(4-fluorophenyl)-7-(3-formyl-6-hydroxy-2,4,5-trimethylphenyl)heptanoic acid], for which the inhibition at 0.1 µM in test [3] (10^-7 M) was 98%; in test [6], 100%. The IC50 in test [4] was 2.3 nM. The same compound gave an inhibition in vivo at 5 mg/kg in test [5] of 84%.
With `CC(C)(C)c1cc(O)c(O)c(C(CCCCCC(=O)O)c2ccccc2)c1` (centres unmarked) [Compound 56], the “Inhibition (%)” value in test [2] worked out at 100%. Moreover, in test [7], the inhibition at 10 µM is 93%, the inhibition at 1 µM was 93% and the inhibition at 0.1 µM amounted to 66%.
As for `Cc1cc(O)c(O)c(C(CCCCCC(=O)O)c2ccc(F)cc2)c1C` (centres unmarked) [Compound 57, 7-(4-fluorophenyl)-7-(2,3-dihydroxy-5,6-dimethylphenyl)heptanoic acid], in test [7], the inhibition at 10 µM amounted to 100%, the inhibition at 1 µM is 90% and the inhibition at 0.1 µM came out at 27%.
